Molecular target: T1, GIVA cPLA2 (Homo sapiens, UniProt P47712)
T1 construct: gene PLA2G4A
T1 sequence (P47712 1-749): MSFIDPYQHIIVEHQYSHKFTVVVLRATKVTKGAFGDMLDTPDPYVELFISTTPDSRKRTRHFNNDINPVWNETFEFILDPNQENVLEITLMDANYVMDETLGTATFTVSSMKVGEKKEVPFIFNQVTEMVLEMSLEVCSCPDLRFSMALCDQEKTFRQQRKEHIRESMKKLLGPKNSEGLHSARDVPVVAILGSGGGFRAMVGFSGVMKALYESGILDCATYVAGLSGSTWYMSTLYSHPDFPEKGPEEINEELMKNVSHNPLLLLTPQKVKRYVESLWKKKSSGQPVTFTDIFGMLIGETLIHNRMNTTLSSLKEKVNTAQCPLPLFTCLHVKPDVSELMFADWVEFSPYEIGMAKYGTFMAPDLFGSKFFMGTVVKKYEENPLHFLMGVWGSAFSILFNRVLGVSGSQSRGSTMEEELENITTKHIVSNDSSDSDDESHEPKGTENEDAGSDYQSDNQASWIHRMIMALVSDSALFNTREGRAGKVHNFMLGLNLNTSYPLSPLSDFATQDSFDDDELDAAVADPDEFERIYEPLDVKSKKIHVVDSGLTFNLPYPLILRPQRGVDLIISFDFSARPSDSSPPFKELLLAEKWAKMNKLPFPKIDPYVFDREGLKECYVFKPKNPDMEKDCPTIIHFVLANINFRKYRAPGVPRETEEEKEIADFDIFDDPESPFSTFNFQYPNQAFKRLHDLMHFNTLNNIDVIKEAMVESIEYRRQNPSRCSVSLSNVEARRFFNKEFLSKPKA
Assay: LC/MS lipidomics-based mixed micelle assay with recombinant human enzyme, dose-response
Format: biochemical

| GIVA cPLA2 / XI(50) | Structure (SMILES) |
| --- | --- |
| 0.00036 ± 0.00007 mole fraction (XI(50)) | CC(CCCc1ccc(-c2ccccc2)cc1)C(=O)C(=O)OCCCCC(=O)O (centres unmarked) [17a, 5-((6-([1,1’-Biphenyl]-4-yl)-3-methyl-2-oxohexanoyl)oxy)pentanoic acid] |
| 0.0012 ± 0.00008 mole fraction (XI(50)) | CC(CCCC(=O)O)OC(=O)C(=O)CCCCc1ccc(-c2ccccc2)cc1 (centres unmarked) [17b, 5-((6-([1,1’-Biphenyl]-4-yl)-2-oxohexanoyl)oxy)hexanoic acid] |
